In the NIST ThermoML archive (doi:10.1021/je700032n):
“And” between values parts separate entries of the source, which are not always exact repeats. Equal entries are not always repeated.

Settings: Liquid; for viscosity: Falling or rolling sphere viscometry; for mass density: 101.33 kPa, Vibrating tube method

CCCCCCn1cc[n+](C)c1.F[P-](F)(F)(F)(F)F [1-hexyl-3-methylimidazolium hexafluorophosphate]
Settings	viscosity
273.15 K, 100 kPa	3924 mPa·s
278.15 K, 100 kPa	2428 mPa·s
283.15 K, 100 kPa	1566 mPa·s and 1565 mPa·s
288.15 K, 100 kPa	1036 mPa·s and 1035 mPa·s
293.15 K, 100 kPa	705.1 mPa·s
298.15 K, 100 kPa	496.4 mPa·s and 496.5 mPa·s
298.15 K, 22000 kPa	685.3 mPa·s
298.15 K, 42100 kPa	917.7 mPa·s
298.15 K, 60300 kPa	1190 mPa·s
298.15 K, 80300 kPa	1572 mPa·s
298.15 K, 100100 kPa	2064 mPa·s
303.15 K, 100 kPa	356.9 mPa·s and 356.8 mPa·s
313.15 K, 100 kPa	197 mPa·s
313.15 K, 400 kPa	197.3 mPa·s
313.15 K, 25700 kPa	276.7 mPa·s
313.15 K, 50800 kPa	381.8 mPa·s
313.15 K, 76000 kPa	521.9 mPa·s
313.15 K, 101400 kPa	708.3 mPa·s
313.15 K, 125200 kPa	939.3 mPa·s
313.15 K, 150000 kPa	1254 mPa·s
323.15 K, 100 kPa	119.2 mPa·s and 117 mPa·s
323.15 K, 7600 kPa	118.3 mPa·s
323.15 K, 25800 kPa	161.7 mPa·s
323.15 K, 50600 kPa	217.1 mPa·s
323.15 K, 76000 kPa	290.7 mPa·s
323.15 K, 100900 kPa	384 mPa·s
323.15 K, 125800 kPa	503.9 mPa·s
323.15 K, 150100 kPa	655 mPa·s
323.15 K, 174800 kPa	850.1 mPa·s
333.15 K, 100 kPa	75.2 mPa·s and 74.4 mPa·s
333.15 K, 40500 kPa	118.5 mPa·s
333.15 K, 80800 kPa	182.8 mPa·s
333.15 K, 120800 kPa	275.7 mPa·s
333.15 K, 160600 kPa	408.7 mPa·s
333.15 K, 200100 kPa	598.9 mPa·s
343.15 K, 100 kPa	49.7 mPa·s
348.15 K, 100 kPa	41.3 mPa·s
348.15 K, 800 kPa	41.9 mPa·s
348.15 K, 40700 kPa	63.7 mPa·s
348.15 K, 80800 kPa	94.2 mPa·s
348.15 K, 120700 kPa	136.4 mPa·s
348.15 K, 160600 kPa	194.8 mPa·s
348.15 K, 200200 kPa	274.5 mPa·s
348.15 K, 238500 kPa	378 mPa·s
353.15 K, 100 kPa	34.8 mPa·s

Settings	mass density
273.15 K	1313.39 kg/m3
278.15 K	1309.33 kg/m3
283.15 K	1305.29 kg/m3
288.15 K	1301.26 kg/m3
293.15 K	1297.24 kg/m3
298.15 K	1293.22 kg/m3
303.15 K	1289.21 kg/m3
313.15 K	1281.17 kg/m3
323.15 K	1273.44 kg/m3
333.15 K	1265.69 kg/m3 and 1265.68 kg/m3
343.15 K	1257.96 kg/m3
353.15 K	1250.28 kg/m3
363.15 K	1242.64 kg/m3

CCCC[n+]1ccn(C)c1.O=S(=O)([N-]S(=O)(=O)C(F)(F)F)C(F)(F)F
Settings	viscosity
273.15 K, 100 kPa	191.3 mPa·s and 191.6 mPa·s
278.15 K, 100 kPa	140.4 mPa·s
283.15 K, 100 kPa	106.1 mPa·s
283.15 K, 24300 kPa	146.8 mPa·s
283.15 K, 49900 kPa	205.8 mPa·s
283.15 K, 74100 kPa	280.3 mPa·s
288.15 K, 100 kPa	81.6 mPa·s
293.15 K, 100 kPa	63.8 mPa·s and 63.9 mPa·s
298.15 K, 100 kPa	50.9 mPa·s and 51 mPa·s and 51.1 mPa·s
298.15 K, 24300 kPa	68.1 mPa·s
298.15 K, 49300 kPa	90.9 mPa·s
298.15 K, 76900 kPa	124 mPa·s
298.15 K, 101500 kPa	161.5 mPa·s
298.15 K, 126400 kPa	210.3 mPa·s
298.15 K, 150200 kPa	269.4 mPa·s
303.15 K, 100 kPa	41.5 mPa·s
313.15 K, 100 kPa	28.5 mPa·s
323.15 K, 100 kPa	20.5 mPa·s and 20.6 mPa·s and 20.7 mPa·s
323.15 K, 26400 kPa	26.9 mPa·s
323.15 K, 35600 kPa	29.2 mPa·s
323.15 K, 52000 kPa	34.6 mPa·s
323.15 K, 53900 kPa	34.8 mPa·s
323.15 K, 69800 kPa	40.2 mPa·s
323.15 K, 75000 kPa	41.6 mPa·s
323.15 K, 101600 kPa	53.9 mPa·s
323.15 K, 103600 kPa	54.4 mPa·s
323.15 K, 123600 kPa	64.3 mPa·s
323.15 K, 152800 kPa	83.6 mPa·s
323.15 K, 200300 kPa	123.2 mPa·s
323.15 K, 226000 kPa	151.2 mPa·s
323.15 K, 249600 kPa	183.2 mPa·s
333.15 K, 100 kPa	15.4 mPa·s and 15.5 mPa·s
343.15 K, 100 kPa	12 mPa·s
348.15 K, 100 kPa	10.6 mPa·s and 10.7 mPa·s
348.15 K, 800 kPa	10.7 mPa·s
348.15 K, 25700 kPa	13.4 mPa·s
348.15 K, 50700 kPa	16.4 mPa·s
348.15 K, 75600 kPa	19.9 mPa·s
348.15 K, 100900 kPa	24.2 mPa·s
348.15 K, 125500 kPa	29 mPa·s
348.15 K, 150600 kPa	34.6 mPa·s
348.15 K, 175400 kPa	40.9 mPa·s
348.15 K, 175600 kPa	41 mPa·s
348.15 K, 200600 kPa	48.6 mPa·s
348.15 K, 225400 kPa	57.4 mPa·s
348.15 K, 249700 kPa	67.3 mPa·s
348.15 K, 274500 kPa	79 mPa·s
348.15 K, 298900 kPa	92.6 mPa·s
353.15 K, 100 kPa	9.53 mPa·s

Settings	mass density
273.15 K	1460.67 kg/m3
278.15 K	1455.84 kg/m3
283.15 K	1451.04 kg/m3
288.15 K	1446.23 kg/m3
293.15 K	1441.43 kg/m3 and 1441.42 kg/m3
298.15 K	1436.64 kg/m3 and 1436.6 kg/m3
303.15 K	1431.86 kg/m3
313.15 K	1422.34 kg/m3
323.15 K	1412.87 kg/m3 and 1412.85 kg/m3
333.15 K	1403.48 kg/m3
343.15 K	1394.15 kg/m3
353.15 K	1384.88 kg/m3
363.15 K	1375.67 kg/m3
